Experimental findings from patent US20150140020A1, “PHARMACEUTICAL COMPOSITION FOR TREATING ADVERSE REACTIONS DUE TO ADMINISTRATION OF SPIEGELMERS” (Freie Universitaet Berlin, priority 2009, published 2015) are described below.

Common to all, as to format: biochemical
In data set [1] the test system is L-target (Seq-ID 1 RNA with L-nucleotides). Put plainly: Cleavage assay: L-target with D-ribozyme. The settings on record: FIG. 2; MgCl2 0-25 mM; 0.2 μM target with 2 μM ribozyme. The protocol: (§1) The activities of L-ribozymes and D-ribozymes were measured in various conditions. The basic conditions were as follows. […] in 50 mM Tris-HCl buffer, pH 7.5, at 20° C. for 2 hours (ribozymes/target ratio therefore 10:1, 1:1 and 1:10). Before the reaction, target RNA and ribozyme were denatured for 2 minutes at 70° C. and cooled slowly (1° C./min) in the heating unit to 25° C. The influence of the Mg^2+ ions at concentration from 0.1 to 25 mM was investigated. Cleavage products were separated on 20% polyacrylamide gel electrophoresis in the presence of 8 M urea in 0.09 M Tris-borate buffer, pH 8.3. The fluorescence was analyzed on Phosphoimager Fuji Film FLA 5100. The data were obtained with the program Fuji Analysis Program. Diagrams were prepared with Excel.
(§2) The following were prepared as target sequences by way of contract synthesis by the company ChemGenes Corporation, Wilmington, USA: • Seq-ID 1: 5′-FAM-ACAGUCGGUCGCC-3′ (RNA, both with D-nucleotides and with L-nucleotides) and • Seq-ID 2: 5′-FAM-ACAGTCGGTCGCC-3′ (DNA, both with D-nucleotides and with L-nucleotides).
All synthesis products were labeled with fluorescein at the 5′-end. […]

The subject of data set [2] is D-target (Seq-ID 1 RNA with D-nucleotides). Put plainly: Cleavage assay: D-target with D-ribozyme. The settings on record: FIG. 4B; MgCl2 1-25 mM; 10-fold ribozyme excess. The protocol:
as §1, §2
(§3) All synthesis products were labeled with fluorescein at the 5′-end.

For data set [3] the test system is unchanged. Put plainly: Cleavage assay: D-target with L-ribozyme. The protocol: as §1, §2, §3
C is the control (L-target+L-ribozyme), tracks 1 to 5 are the various MgCl2 concentrations given in the diagram (0-25 mM) for target without ribozyme, tracks 6 to 9 0.2 μM target with 2 μM ribozyme.

The subject of data set [4] is L-target (Seq-ID 1 RNA with L-nucleotides). Put plainly: Cleavage assay: L-target with L-ribozyme. The protocol:
as §1, §2, §3

A further data set relates to L-target. Put plainly: Cleavage of L-target by L-ribozyme in human serum. The following applies: FIG. 12; conditions of human serum.

[L-RNA-N] = L-ribonucleotide (mirror-image RNA) (N: the base); {FAM} = fluorescein label

Take “5′-FAM-GGCGACCCUGAUGAGGCCGAAAGGCCGAAACUGU-3′ (RNA, 5' {FAM}, backbone not given here) [D-ribozyme]”: the “cleavage of L-target by D-ribozyme” value in data set [1] is recorded as “does not cleave”. Also, the “proportion of cleavage products of D-target with D-ribozyme as a function of MgCl2 concentration” value in data set [2] is recorded as “increases with increasing Mg concentration”.
As for “5′-FAM-GGCGACCCUGAUGAGGCCGAAAGGCCGAAACUGU-3′ (all [L-RNA-N], 5' {FAM}, backbone not given here) [L-ribozyme]”, the “cleavage of D-target by L-ribozyme” value in data set [3] (FIG. 2, MgCl2 0-25 mM, 0.2 μM target with 2 μM ribozyme) was “a notable reaction certainly occurs”. The “proportion of cleavage products of the D-target by L-ribozyme as a function of MgCl2 concentration” value in data set [3] (FIG. 2C, increasing Mg concentration) is listed as “increases with increasing Mg concentration”. Further, in data set [3] (FIG. 3, 10 mM MgCl2, times 0 to 256 min, compared with L-target/D-ribozyme), the “proportion of cleavage products of the D-target by L-ribozyme over time” value is reported as “increases with time”. The “proportion of cleavage products of L-target with L-ribozyme as a function of MgCl2 concentration” value in data set [4] (FIG. 4B, MgCl2 1-25 mM, 10-fold ribozyme excess) is on record as “increases with increasing Mg concentration”. Also, the “cleavage of L-target by L-ribozyme” value in data set [4] (FIGS. 4 to 11, all usual conditions (0.1-25 mM MgCl2, ribozyme excess to deficit)) is on record as “effectively cuts”. The “turnover rates of L-ribozyme with L-target” value in data set [4] (FIGS. 4 to 11, relative to D-ribozyme with D-target) was “at least correspond to those of a D-ribozyme with a D-target”. Also, in the data set with L-target, the “cleavage of L-target by L-ribozyme in human serum” value was “functions effectively”.
